Source: the supplement of paper PMC11579375

Key:
Experiment in all cases: area under the viability dose-response curve (AUC) (AUC (arbitrary units, max 500 = no viability loss)); higher = less sensitive (higher viability)
Details in all cases: exposure time: 120 h; concentration range: 0.1 nM - 10 µM, 6 doses
10F2 = tested on: 10F2 (fetal-II hepatoblastoma organoid with high liver markers)
Description: (§1)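 Patient-derived hepatoblastoma tumor organoids (about 50 organoids per well, 384-well plates, medium with 5% BME) were treated with the PMC pediatric cancer drug library. Each drug was tested in duplicate at 6 concentrations (0.1 nM to 10 µM, 10-fold steps).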

13F2 = tested on: 13F2 (fetal-II hepatoblastoma organoid with high liver markers)
Description: as §1

17F1 = tested on: 17F1 (fetal-I hepatoblastoma organoid with intermediate liver markers)
Description: as §1

8F1 = tested on: 8F1 (fetal-I hepatoblastoma organoid with intermediate liver markers)
Description: as §1

27F1 = tested on: 27F1 (fetal-I hepatoblastoma organoid with intermediate liver markers)
Description: as §1

17E = tested on: 17E (embryonal-type hepatoblastoma organoid)
Description: as §1

96F1 = tested on: 96F1 (fetal-I hepatoblastoma organoid with intermediate liver markers)
Description: as §1

22E = tested on: 22E (embryonal-type hepatoblastoma organoid)
Description: as §1

135F2 = tested on: 135F2 (fetal-II hepatoblastoma organoid with high liver markers)
Description: as §1

3E = tested on: 3E (embryonal-type hepatoblastoma organoid)
Description: as §1

13E = tested on: 13E (embryonal-type hepatoblastoma organoid)
Description: as §1

SMILES | area under the viability dose-response curve (10F2) | area under the viability dose-response curve (13F2) | area under the viability dose-response curve (17F1) | area under the viability dose-response curve (8F1) | area under the viability dose-response curve (27F1) | area under the viability dose-response curve (17E) | area under the viability dose-response curve (96F1) | area under the viability dose-response curve (22E) | area under the viability dose-response curve (135F2) | area under the viability dose-response curve (3E) | area under the viability dose-response curve (13E)
C[C@]12C=CC(=O)C=C1CC[C@@H]1[C@@H]2[C@@H](O)C[C@@]2(C)[C@H]1CC[C@]2(O)C(=O)CO [Prednisolone] | 475 | > 500 | 493 | 472 | 489 | 467 | 479 | 487 | 475 | 472 | 494
O=c1cc(CN2CCOCC2)occ1OCCCCCSc1ccnc2cc(C(F)(F)F)ccc12 [EHT 1864] | 375 | 456 | 477 | 468 | 490 | 454 | 488 | 490 | 475 | 371 | 481
C[C@@H]1CN(C(=O)c2ccc(NC(=O)c3cc(O[C@H](C)c4c(Cl)ccc(F)c4Cl)c(N)nn3)cc2)C[C@H](C)N1 [Ensartinib] | 449 | 410 | 483 | 444 | 468 | 411 | 456 | 393 | 449 | 403 | 422
C#Cc1cccc(Nc2ncnc3cc(OCCOC)c(OCCOC)cc23)c1 [Erlotinib] | 311 | 360 | 448 | 463 | 423 | 448 | 415 | 485 | 469 | 476 | 488
Cc1c(-c2c(-c3ccc(F)o3)sc3ncnc(O[C@H](Cc4ccccc4OCc4ccnn4CC(F)(F)F)C(=O)O)c23)ccc(OCCN2CCN(C)CC2)c1Cl | 185 | 239 | > 500 | 485 | 428 | 370 | > 500 | 388 | 351 | 234 | 367
CCC(CC)(NC(=O)C(C)C)C(=O)N[C@@H](CCCN=C(N)N)C(=O)NC1(C(=O)NC(c2ccc(F)cc2)c2ccc(F)cc2)CCCC1 [MM102] | 445 | 482 | 486 | > 500 | 493 | > 500 | 485 | 464 | 497 | > 500 | > 500
CC[C@@]1(O)C(=O)OCc2c1cc1n(c2=O)Cc2cc3c(CN(C)C)c(O)ccc3nc2-1 [Topotecan] | 311 | 239 | 319 | 372 | 348 | 269 | 284 | 416 | 291 | 257 | 328
CNC(=O)c1ccc(-c2cnc3ncc(Cc4ccc5ncccc5c4)n3n2)cc1F [Capmatinib] | > 500 | 403 | 477 | 460 | 465 | 481 | 478 | 462 | 491 | > 500 | 498
Cc1cn(-c2cc(NC(=O)c3ccc(C)c(Nc4nccc(-c5cccnc5)n4)c3)cc(C(F)(F)F)c2)cn1 [Nilotinib] | > 500 | 471 | 496 | 486 | > 500 | 456 | 495 | 478 | 476 | 489 | 493
Cc1ccc(NC(=O)c2ccc(CN3CCN(C)CC3)cc2)cc1Nc1nc(-c2cccnc2)cs1 [Masitinib] | 497 | 489 | > 500 | > 500 | > 500 | 462 | 484 | 474 | 473 | 483 | 489
CCc1cc2c(cc1N1CCC(N3CCOCC3)CC1)C(C)(C)c1[nH]c3cc(C#N)ccc3c1C2=O [Alectinib] | > 500 | 473 | 499 | 496 | > 500 | > 500 | > 500 | 479 | 499 | 452 | 498
CO[C@H]1/C=C/C[C@H](C)[C@@H](C)S(=O)(=O)NC(=O)c2ccc3c(c2)N(C[C@@H]2CC[C@H]21)C[C@@]1(CCCc2cc(Cl)ccc21)CO3 [AMG-176] | 274 | 344 | 481 | 475 | 450 | 434 | 488 | 454 | 431 | 369 | 421
Cc1nc(-c2cn3c(n2)-c2ccc(-c4cnn(C(C)(C)C(N)=O)c4)cc2OCC3)n(C(C)C)n1 [Taselisib] | 361 | 351 | 493 | 475 | 413 | 349 | 437 | 415 | 435 | 305 | 388
CN1CC[C@@H](NC(=O)Nc2ccc(C#N)cc2)C[C@@H]1c1nc2ccccc2[nH]1 [Glasdegib] | 448 | > 500 | 497 | > 500 | > 500 | > 500 | > 500 | > 500 | > 500 | > 500 | > 500
CN[C@@H](C)C(=O)N[C@H](C(=O)N1CCC[C@H]1C(=O)N[C@H]1c2ccccc2C[C@H]1OCC#CC#CCO[C@@H]1Cc2ccccc2[C@@H]1NC(=O)[C@@H]1CCCN1C(=O)[C@@H](NC(=O)[C@H](C)NC)C1CCCCC1)C1CCCCC1 [AZD5582] | 321 | 470 | 446 | 414 | 394 | 473 | 458 | 82.8 | 483 | 148 | 424
CS(=O)(=O)CCNCc1ccc(-c2ccc3ncnc(Nc4ccc(OCc5cccc(F)c5)c(Cl)c4)c3c2)o1 [Lapatinib] | 336 | 388 | 459 | 495 | 416 | 482 | 445 | 463 | 474 | 464 | 483
